Measured values taken from publication PMC3179492, “HIV Protease Inhibitors Act as Competitive Inhibitors of the Cytoplasmic Glucose Binding Site of GLUTs with Differing Affinities for GLUT1 and GLUT4” (PLoS ONE, 2011).
Values joined by “and” are separate entries in the source; they are usually repeats but may differ in a detail not shown here. Identical values can stand only once. Like-named read-outs stand apart in the source and are kept apart here.

What was measured:
GLUT1 = target: T1, GLUT1 (Mus musculus, UniProt P17809); assay: ATB-BMPA photolabeling of low-density microsomes (LDM) from 3T3-L1 adipocytes, GLUT1; format: binding; details: for IC50: LDM 200 µg, biotinylated ATB-BMPA 50 µM, mean ± S.E., n = 3, read-out: Half-maximal inhibition (IC50) of ATB-BMPA binding to GLUT1
T1 construct: LDM contains small intracellular vesicles of GLUT4 and GLUT1; endogenous in cells; host or cells: low-density microsome fraction of differentiated 3T3-L1 adipocytes
T1 sequence (P17809 1-492): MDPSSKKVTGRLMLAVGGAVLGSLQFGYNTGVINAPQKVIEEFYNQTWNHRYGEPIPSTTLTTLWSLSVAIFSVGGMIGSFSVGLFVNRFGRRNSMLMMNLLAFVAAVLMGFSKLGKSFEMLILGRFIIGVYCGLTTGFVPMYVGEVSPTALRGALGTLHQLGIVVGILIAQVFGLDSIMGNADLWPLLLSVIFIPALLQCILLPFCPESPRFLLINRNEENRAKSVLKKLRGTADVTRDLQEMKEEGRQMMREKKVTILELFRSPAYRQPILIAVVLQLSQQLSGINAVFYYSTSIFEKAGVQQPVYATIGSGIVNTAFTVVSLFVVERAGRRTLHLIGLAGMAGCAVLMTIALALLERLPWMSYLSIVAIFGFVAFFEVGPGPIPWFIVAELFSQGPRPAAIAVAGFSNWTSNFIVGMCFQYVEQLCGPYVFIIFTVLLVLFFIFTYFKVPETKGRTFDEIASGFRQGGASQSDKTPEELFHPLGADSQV
Method: (§1) 3T3-L1 fibroblasts were grown to confluency and 48 h later subjected to differentiation as previously described. 3T3-L1 adipocytes were used 10 – 14 days after differentiation. Six culture dishes (15 cm) of adipocytes were serum-starved overnight, washed 3 times with ice-cold HES buffer (50 mM Hepes, pH 7.4, 255 mM sucrose, and 1 mM EDTA) containing Roche complete protease inhibitors (Roche Applied Science, Mannheim, Germany), scraped into 5 ml of the same buffer, and then homogenized with either a ball-bearing homogenizer or with a Potter-Elvehjem tissue grinder and a PTFE pestle. The low-density microsome (LDM) fraction was obtained by differential centrifugation as described previously. LDM were resuspended in phosphate buffer (25 mM phosphate, pH 7.4, 100 mM NaCl, 5% glycerol) containing complete Roche protease inhibitors.
(§2) Inhibitors were added to LDM (200 µg protein unless otherwise stated) for 10 min at room temperature. Samples (final volume 110 µl) were then incubated for 10 min at room temperature in the dark with biotinylated ATB-BMPA (50 µM final concentration) and then placed on ice prior to UV irradiation. Reactions were transferred to a 24-well low protein retention culture dish (Costar, Corning, NY) and then irradiated at room temperature 5 cm from a Green Spot UV lamp for 1 min (30 sec of light, followed by 30 sec of darkness, followed by 30 sec of light).
(§3) 20 µl of BSA (1.5 mg/ml final concentration) was added to the UV irradiated samples in a siliconized eppendorph tube. Excess biotinylated ATB-BMPA label was removed using a 0.5 ml Zeba Spin Desalting Column (Pierce). Biotinylated proteins were isolated essentially as described previously. Membranes were solubilized for 30 min at 4°C with 2% Thesit detergent buffer containing protease inhibitors. After centrifugation at 16,000 x g for 10 min, the supernatants were incubated overnight at 4°C with 50 µl of high capacity Streptavidin Agarose resin (Pierce). Precipitates were washed 3 times with 1% Thesit detergent buffer, twice with 0.1% Thesit detergent buffer, and once with phosphate buffer. Biotinylated proteins were eluted at 95 – 100°C for 20 min in 60 µl of 2X Laemmli Sample Buffer containing 40 mM dithiothreitol. Half of the eluted proteins were subjected to SDS-PAGE and transferred to nitrocellulose. Immunoblot analysis was carried out using GLUT4 and GLUT1 specific antibodies and quantified using an Odyssey Infrared Imaging System (LI-COR Biosciences, Lincoln, NE).

3T3-L1 fibroblasts = assay: 2-Deoxyglucose uptake in 3T3-L1 fibroblasts (express only GLUT1); format: cell-based; details: 3T3-L1 fibroblasts
Method: 3T3-L1 fibroblasts were grown to confluency in Dulbecco's modified Eagle's medium (DMEM) supplemented with 10% calf serum. The uptake of [^3H]2-Deoxyglucose (50 µM) was measured in Krebs-Ringer phosphate buffer for 6 min at 37°C as previously described. HIV protease inhibitors were added 6 min prior to the start of the reaction. Non-specific uptake measured in the presence of 20 µM cytochalasin B (Sigma) was subtracted from the experimental values.

primary rat adipocytes = assay: 2-Deoxyglucose uptake in insulin-stimulated primary rat adipocytes (predominantly GLUT4); format: cell-based; details: for Effect on 2-deoxyglucose uptake (GLUT4 transporter activity): primary rat adipocytes
Method: Adipocytes from epididymal fat pads were prepared from male Wistar rats weighing 150 – 200 g (from Charles River Laboratories, Inc., Wilmington, MA) as previously described. Adipocytes were stimulated with 1 µM insulin for 30 min at 37°C prior to use. 2-Deoxyglucose uptakes were performed by adding 80 µl of the cell suspension to 80 µl of Krebs-Ringer bicarbonate Hepes buffer (KRB) (120 mM NaCl, 4 mM KH2PO4, 1 mM MgSO4, 1 mM CaCl2, 10 mM NaHCO3, 200 nM adenosine, 30 mM Hepes, pH 7.4) containing 3% bovine serum albumin. HIV protease inhibitors / vehicle were added 5 min prior to the initiation of the reaction. Uptakes were initiated with the addition of 20 µl of [^3H]2-deoxyglucose (final 2-deoxyglucose concentration 50 µM; 0.5 µCi/assay). After 1 min at 37 °C, reactions were quenched with cytochalasin B to a final concentration of 0.4 mM. The cells were separated by spinning the reaction through dinonylphthalate as previously described and the intracellular radioactivity was quantified by liquid scintillation counting. Non-specific uptake measured in the presence of 20 µM cytochalasin B (Sigma) was subtracted from the experimental values.

GLUT4 [1] = target: T2, GLUT4 (Mus musculus, UniProt P14142); assay: ATB-BMPA photolabeling of low-density microsomes (LDM) from 3T3-L1 adipocytes, GLUT4; format: binding; set-up: LDM contains small intracellular vesicles of GLUT4 and GLUT1; endogenous in cells; host or cells: low-density microsome fraction of differentiated 3T3-L1 adipocytes; details: for IC50: LDM 200 µg, biotinylated ATB-BMPA 50 µM, mean ± S.E., n = 3, read-out: Half-maximal inhibition (IC50) of ATB-BMPA binding to GLUT4; for Selectivity GLUT4 vs GLUT1, inhibition of ATB-BMPA labeling: LDM of 3T3-L1 adipocytes
T2 sequence (P14142 1-509): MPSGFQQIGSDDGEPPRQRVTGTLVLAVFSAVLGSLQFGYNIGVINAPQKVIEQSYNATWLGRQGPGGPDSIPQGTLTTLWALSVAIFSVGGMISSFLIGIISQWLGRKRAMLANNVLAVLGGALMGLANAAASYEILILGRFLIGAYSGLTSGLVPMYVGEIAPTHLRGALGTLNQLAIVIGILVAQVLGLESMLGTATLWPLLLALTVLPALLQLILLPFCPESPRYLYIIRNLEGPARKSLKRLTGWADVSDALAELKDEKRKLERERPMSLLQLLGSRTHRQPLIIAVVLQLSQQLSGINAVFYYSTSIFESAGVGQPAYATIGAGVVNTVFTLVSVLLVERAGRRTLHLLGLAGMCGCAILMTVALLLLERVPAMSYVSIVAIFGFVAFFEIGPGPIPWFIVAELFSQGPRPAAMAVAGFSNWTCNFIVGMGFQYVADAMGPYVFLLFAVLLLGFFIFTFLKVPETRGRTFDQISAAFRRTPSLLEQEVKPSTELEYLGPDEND
Method: as §1, §2, §3

myotubes = system: myotubes; set-up: method as in PMID 1401073; details: read-out: IC50 for inhibition of 2-deoxy-glucose uptake into myotubes; cited from earlier work
human erythrocytes = target: human erythrocytes; set-up: method as in PMID 2390055; details: read-out: Ki for inhibition of sugar uptake; cited from earlier work
[2] = target: insulin-stimulated rat adipocytes; details: read-out: Ki for inhibition of sugar uptake; cited from earlier work
GLUT4 [3] = target: T2, GLUT4; assay: Kinetic (Scatchard) analysis of indinavir effect on ATB-BMPA labeling of GLUT4 in LDM; format: binding; set-up: LDM contains small intracellular vesicles of GLUT4 and GLUT1; endogenous in cells; host or cells: low-density microsome fraction of differentiated 3T3-L1 adipocytes; details: Scatchard plot
Method: ATB-BMPA (50, 100, 200, 300 µM final concentration) was then added for an additional 10 min (5 min at room temperature, 5 min at 4 °C). Samples (110 µl final volume) were UV irradiated as described above. After removal of excess label with a desalting spin column, GLUT4 protein was immunoprecipitated from Thesit-solubilized LDM using a GLUT4 C-terminal directed antibody. ATB-BMPA-bound GLUT4 was analyzed by immunoblot analysis using an IR Dye 800 CW fluorescent streptavidin (LI-COR) and quantified with an Odyssey Infrared Imaging System. Identical samples that were not UV irradiated were used to correct for non-specific binding. The free ATB-BMPA concentration was assumed to be equal to the total ATB-BMPA concentration since the label concentration far exceeded the GLUT4 concentration. The data was expressed as Scatchard plots, bound/free versus bound. The Bmax and Kd values were determined from the horizontal intercept and the negative […], respectively.

[4] = 10 µM PI (therapeutic concentration)

SMILES | Effect on ATB-BMPA labeling of GLUT1 (GLUT1; [4]) | Effect on ATB-BMPA labeling of GLUT1 (GLUT1; 50 µM PI) | Effect on 2-deoxyglucose uptake (GLUT1 transporter activity) (3T3-L1 fibroblasts; 10 µM PI) | Effect on 2-deoxyglucose uptake (GLUT1 transporter activity) (3T3-L1 fibroblasts; 50 µM PI) | Effect on 2-deoxyglucose uptake (GLUT4 transporter activity) (primary rat adipocytes; 10 µM PI) | Effect on 2-deoxyglucose uptake (GLUT4 transporter activity) (primary rat adipocytes; 50 µM PI) | Effect on ATB-BMPA labeling of GLUT4 (GLUT4 [1]; [4]) | Effect on ATB-BMPA labeling of GLUT4 (GLUT4 [1]; 50 µM PI) | IC50 (GLUT1) | IC50 (GLUT4 [1]) [µM] | further results
CCC[C@@]1(CCc2ccccc2)CC(O)=C([C@H](CC)c2cccc(NS(=O)(=O)c3ccc(C(F)(F)F)cn3)c2)C(=O)O1 [Tipranavir] | no effect | no effect | no effect | no effect | no effect | no effect | no effect | no effect |  |  | 
CC(C)c1nc(CN(C)C(=O)N[C@H](C(=O)N[C@@H](Cc2ccccc2)C[C@H](O)[C@H](Cc2ccccc2)NC(=O)OCc2cncs2)C(C)C)cs1 [Ritonavir, ritonavir] |  | affected |  | affected |  | affected |  | affected |  |  | 
C=C1[C@@H](C)[C@H]2[C@H](Cc3ccccc3)NC(=O)[C@]23OC(=O)/C=C/[C@H](O)CCC[C@@H](C)C/C=C/[C@H]3[C@@H]1O [CB, cytochalasin B] |  |  |  |  |  |  |  |  | 0.35 µM and 0.36 µM | 0.44 ± 0.07 | IC50 (myotubes): 0.4 µM
O=C(CCCCC1SCC2NC(=O)NC21)NCCCCCC(=O)NCCOCCOCCOc1cc(C2(C(F)(F)F)N=N2)ccc1C(=O)NC(CO[C@H]1[C@H](O)[C@H](O)C(O)O[C@@H]1CO)CO[C@H]1[C@H](O)[C@H](O)C(O)O[C@@H]1CO (stereo partly shown) [ATB-BMPA] |  |  |  |  |  |  |  |  |  |  | Ki (human erythrocytes): ~350 µM; Ki [2]: ~350 µM; Kd (GLUT4 [3]; 0 µM indinavir, read-out: Kd of ATB-BMPA binding to GLUT4): 75 µM; Kd (GLUT4 [3]; 10 µM indinavir, read-out: Kd (apparent) of ATB-BMPA binding to GLUT4): 152 µM; Kd (GLUT4 [3]; 20 µM indinavir, read-out: Kd (apparent) of ATB-BMPA binding to GLUT4): 218 µM; Kd (GLUT4 [3]; 50 µM indinavir, read-out: Kd (apparent) of ATB-BMPA binding to GLUT4): 510 µM
COC(=O)N[C@H](C(=O)N[C@@H](Cc1ccccc1)[C@@H](O)CN(Cc1ccc(-c2ccccn2)cc1)NC(=O)[C@@H](NC(=O)OC)C(C)(C)C)C(C)(C)C [Atazanavir, atazanavir] | no effect | affected | no effect | affected | no effect | affected | no effect | affected | 59 ± 4.8 µM | 66 ± 3.3 | Selectivity GLUT4 vs GLUT1, inhibition of glucose uptake (primary rat adipocytes; primary rat adipocytes vs 3T3-L1 fibroblasts): non-specific GLUT inhibitor; Selectivity GLUT4 vs GLUT1, inhibition of ATB-BMPA labeling (GLUT4 [1]): non-specific GLUT inhibitor; Selectivity GLUT4 vs GLUT1, inhibition of ATB-BMPA labeling (GLUT4 [1]; listed as atazanavir): non-selective
